# Test results as given in patent EP4685136A1, “AMINO LIPID, AND LIPID NANOPARTICLES AND USE THEREOF” (Shenzhen MagicRNA Biotechnology Co., Ltd., priority 2023, dated 2024).
# How the values were obtained:
# [1] = Particle size and PDI of Luc-mRNA lipid nanoparticles (Nano-ZS ZEN3600, Malvern); type: physicochemical; conditions: LNP of amino lipid:DSPC:cholesterol:DMG-PEG2000 47.5:10:41:1.5 with Luc-mRNA; lipid to mRNA mass ratio about 40:1
# Experimental: (§1) The amino lipid compound of the present invention (or DLin-MC3 or SM-102 (both purchased from AVT (Shanghai) Pharmaceutical Technology Co., Ltd.)), phospholipid lipid (DSPC), cholesterol, and PEGylated lipid (DMG-PEG2000) were mixed and dissolved in anhydrous ethanol at a molar ratio of 47.5:10:41:1.5. The resulting ethanol solution and citric acid buffer (50 mM, pH = 4.0) dissolved with Luc-mRNA (TriLink) were mixed in a microfluidic chip at a volume ratio of 1:3 using a microfluidic preparation system to prepare a crude solution of lipid nanoparticles, which was then dialyzed in 1X PBS at 4°C for 6 h using a dialysis cassette (Fisher, MWCO 20,000). The product was filtered through a 0.22 µm microporous filter membrane before use. The mass ratio of the amino lipid compound to luciferase mRNA (Luc mRNA) was about 40:1.
# The particle size and PDI (polydispersity index) of the prepared lipid nanoparticles were measured by Nano-ZSZEN3600 (Malvern). 20 µL of lipid nanoparticle (LNP) solution was taken for particle size measurement, and cycled three times with each cycle for 30 s.
# [2] = Encapsulation efficiency of Luc-mRNA lipid nanoparticles (Quant-iT RiboGreen RNA Kit); type: physicochemical; conditions: LNP of amino lipid:DSPC:cholesterol:DMG-PEG2000 47.5:10:41:1.5 with Luc-mRNA; lipid to mRNA mass ratio about 40:1
# Experimental: as §1
# The encapsulation efficiency was determined according to the standard procedure of the Quant-iT RiboGreen RNA Kit. Table 1 Characterization data of LNPs prepared using representative amino lipid compounds
# [3] = tested on: C57BL/6 mice; assay: In vivo delivery of luciferase mRNA by intramuscular injection of LNPs (IVIS imaging); conditions: total fluorescence intensity, Luc mRNA LNP, 0.5 mg/kg mRNA, 12 hours
# Experimental: Preparation of lipid nanoparticles: same as Example 36.
# (§2) Animal preparation: 6-week-old female C57BL/6 mice weighing about 20 g were selected and raised in an SPF-grade feeding room. Animal experiments were conducted strictly in accordance with the guidelines of the National Institutes of Health and animal ethics requirements.
# In vivo delivery: Five C57BL/6 mice were randomly selected from each group and injected with lipid nanoparticle solution at a dose of 0.5 mg/kg mRNA by intramuscular injection. Twelve hours later, 200 µL of 10 mg/mL D-luciferin potassium salt was injected into the peritoneal cavity of each mouse. Five minutes later, the mice were placed under an in vivo imaging system (IVIS-200, Xenogen) to observe the total fluorescence intensity of each mouse and take photos for recording. The expression intensity of Luc mRNA delivered by intramuscular injection of LNPs composed of representative amino lipid compounds is shown in Table 3, with DLin-MC3 and SM-102 as controls. Table 3 Expression intensity of Luc mRNA delivered by intramuscular injection of LNPs composed of representative amino lipids
# [4] = tested on: primary BMDC cells; assay: Transfection of Luc mRNA lipid nanoparticles on primary BMDC cells (ONE-Glo luciferase readout); type: cell-based, C57BL/6 mice; conditions: expression intensity of Luc mRNA on BMDCs; 10 µL LNP per well, 20,000 cells per well, 12 hours
# Experimental: as §2
# Cell acquisition: C57BL/6 mice were sacrificed by cervical dislocation and immersed in 75% alcohol for 5 minutes for disinfection. The thigh and tibia of the mice were dissected and the attached muscles were removed to expose the bone. The bone marrow in the tibia was blown out with a 1 mL syringe filled with PBS. The obtained bone marrow was dispersed by blowing and filtered through a 50 µm filter mesh to remove impurities. Red blood cell lysis solution (3-4 mL) was added to the obtained filtrate and allowed to stand for 5 minutes. Then, the supernatant was removed by centrifugation at 800 g for 5 minutes. The obtained cells were placed in 1640 culture medium (containing 10% fetal bovine serum, 20 ng/mL GMCSF, 10 ng/mL IL4) for being resuspended, and inoculated into 6-well plates at a density of 100,000 cells/mL of culture medium. The plates were placed in a cell culture incubator containing 5% CO2 at 37°C, and the medium was half-changed every 2 days. On the seventh day, the suspended cells and loosely adherent cells were collected and inoculated into 96-well all-white ELISA plates at a density of 20,000 cells per well, with a culture medium volume of 100 µL.
# Cell transfection: the lipid nanoparticles encapsulating luciferase mRNA were added to a 96-well all-white ELISA plate with spreaded primary cells, and the volume of mRNA lipid nanoparticles added to each well was controlled to be 10 µL. Then, the plate was placed in an incubator with 5% CO2 concentration at 37°C for 12 hours.
# Transfection efficiency detection: 20 µL of substrate ONE-Glo™ Luciferase was added to each well of a 96-well all-white ELISA plate, and the assay was performed using a multifunctional microplate reader (Biorek SynergyH1) after 1 min. The expression intensity of Luc mRNA transfected on BMDCs by lipid nanoparticles (LNPs) composed of representative amino lipid compounds is shown in Table 2, with DLin-MC3 and SM0102 as controls. Table 2 Expression intensity of transfection of representative amino lipid compounds on BMDCs
Average particle size (nm) [1] [nm],PDI [1],Encapsulation efficiency (%) [2] [%],Compound,Fluorescence intensity [3],Luminescence intensity [4]
102,0.10,93.0,CCCCCCCCCCC(COC(=O)CCCCC)OC(=O)CCCCCN(CCCCCC(=O)OC(CCCCCCCCCC)COC(=O)CCCCC)[C@H]1CC[C@H](O)CC1 (relative stereo) [E12LA6B6O10],1.6E+09,
69,0.06,95.8,CCCCCCC(COC(=O)C(CCCCC)CCCCC)OC(=O)CCCCCN(CCCO)CCCCCC(=O)OC(CCCCCC)COC(=O)C(CCCCC)CCCCC (centres unmarked) [E8CA5B6O3],,2.3E+05
72,0.09,95.67,CCCCCCCCCCCC(=O)OCC(CCCCCC)OC(=O)CCCCCN(CCCO)CCCCCC(=O)OC(CCCCCC)COC(=O)CCCCCCCCCCC (centres unmarked) [E8LA12B6O3],,
71,0.11,92.23,CCCCCCCCC(COC(=O)CCCCCCC)OC(=O)CCCCCN(CCCO)CCCCCC(=O)OC(CCCCCCCC)COC(=O)CCCCCCC (centres unmarked) [E10LA8B6O3],1.8E+09,
53,0.07,94.6,CCCCCCCCCCC(COC(=O)CCCCC)OC(=O)CCCCCN(CCCCCC(=O)OC(CCCCCCCCCC)COC(=O)CCCCC)CCCOC(=O)CCCN1CCN(C)CC1 (centres unmarked) [E12LA6B6O3A3],,
80,0.03,90.7,CCCCCCCCCCC(COC(=O)CCCCC)OC(=O)CCCCCN(CCCCCC(=O)OC(CCCCCCCCCC)COC(=O)CCCCC)CCCOC(=O)CCN(C)C (centres unmarked) [E12LA6B6O3A4],,
110,0.05,96.5,CCCCCCCCCCC(COC(=O)CCCCC)OC(=O)CCCCCN(CCCCCC(=O)OC(CCCCCCCCCC)COC(=O)CCCCC)CCCOC(=O)C1CCN(C)CC1 (centres unmarked) [E12LA6B6O3A7],,7.3 E+04
95,0.11,93.2,CCCCCCCCCCC(COC(=O)CCCCC)OC(=O)CCCCCN(CCCCC)CCCCCC(=O)OC(CCCCCCCCCC)COC(=O)CCCCC (centres unmarked) [E12LA6B6O9],,2.2 E+05
97,0.05,97.6,CCCCCCCCCCC(COC(=O)CCCCC)OC(=O)CCCCCN(CCCCCC(=O)OC(CCCCCCCCCC)COC(=O)CCCCC)CCCN(C)C (centres unmarked) [E12LA6B6O12],,4.9 E+04
83,0.01,94.4,CCCCCCCCCCC(COC(=O)CCCCC)OC(=O)CCCCCN(CCCCCC(=O)OC(CCCCCCCCCC)COC(=O)CCCCC)CCN1CCCCC1 (centres unmarked) [E12LA6B6O13],,
90,0.12,95.2,CCCCCCCCCCC(COC(=O)CCCCC)OC(=O)CCCCCN(CCCCCC(=O)OC(CCCCCCCCCC)COC(=O)CCCCC)CCN1CCC(O)CC1 (centres unmarked) [E12LA6B6O15],,
132,0.09,95.6,CCCCCCCCCCCC(=O)OCC(CCCCCCCCCC)OC(=O)CCCCCN(CCCCCC(=O)OC(CCCCCCCCCC)COC(=O)CCCCCCCCCCC)CCCNC(=O)CCCN(C)C (centres unmarked) [E12LA12B6O3A11],,1.4E+05
127,0.03,98.2,CCCCCCCCCCCC(=O)OCC(CCCCCCCCCC)OC(=O)CCCCCN(CCCCCC(=O)OC(CCCCCCCCCC)COC(=O)CCCCCCCCCCC)CCCC(=O)O (centres unmarked) [E12LA12B6O30],,
120,0.06,98.9,CCCCCCCCCCC(CCCOC(=O)CCCCC)OC(=O)CCCCCN(CCCO)CCCCCC(=O)OC(CCCCCCCCCC)CCCOC(=O)CCCCC (centres unmarked) [K4LA6B6O3],,4.9 E+05

# Continued, molecule first:
Compound,Average particle size (nm) [1] [nm],PDI [1],Encapsulation efficiency (%) [2] [%],Fluorescence intensity [3],Luminescence intensity [4]
CCCCCCC(COC(=O)CCCCC)OC(=O)CCCCCN(CCCCCC(=O)OC(CCCCCC)COC(=O)CCCCC)CCCOC(=O)CCCCCCN(C)C (centres unmarked) [E8LA6B6O3A6],108,0.07,97.6,,2.8E+05
CCCCCCCCCCC(COC(=O)CCCCC)OC(=O)CCCCCN(CCCCCC(=O)OC(CCCCCCCCCC)COC(=O)CCCCC)CCCOC(=O)CCN1CCN(C)CC1 (centres unmarked) [E12LA6B6O3A2],,,,,4.0E+05
CCCCCCCCCCC(COC(=O)CCCCC)OC(=O)CCCCCN(CCCCCC(=O)OC(CCCCCCCCCC)COC(=O)CCCCC)CCCOC(=O)CCCCN(C)C (centres unmarked) [E12LA6B6O3A5],117,0.08,97.8,,1.5 E+05
CCCCCCCCCCC(COC(=O)CCCCC)OC(=O)CCCCCN(CCCCCC(=O)OC(CCCCCCCCCC)COC(=O)CCCCC)CCCOC(=O)CCN1CCCCC1 (centres unmarked) [E12LA6B6O3A8],124,0.06,95.3,,1.9 E+05
CCCCCCCCCCCC(=O)OCC(CCCCCCCCCC)OC(=O)CCCCCN(CCCO)CCCCCC(=O)OC(CCCCCCCCCC)COC(=O)CCCCCCCCCCC (centres unmarked) [E12LA12B6O3],73,0.09,97.5,,4.1E+05
CCCCCCCCCCCC(=O)OCC(CCCCCCCCCC)OC(=O)CCCCCN(CCCCCC(=O)OC(CCCCCCCCCC)COC(=O)CCCCCCCCCCC)CCCC(=O)OCCCN(C)C (centres unmarked) [E12LA12B6O30A9],121,0.14,92.4,,2.7 E+05
CCCCCCCCCCCC(=O)OCC(CCCCCCCCCC)OC(=O)CCCCCN(CCCCCC(=O)OC(CCCCCCCCCC)COC(=O)CCCCCCCCCCC)CCCC(=O)NCCCN(C)C (centres unmarked) [E12LA12B6O30A10],117,0.08,91.8,,4.1E+05
CCCCCCCCCCCC(=O)OCC(CCCCCCCCCC)OC(=O)CCCCCN(CCCC#N)CCCCCC(=O)OC(CCCCCCCCCC)COC(=O)CCCCCCCCCCC (centres unmarked) [E12LA12B6O31],130,0.04,98.4,,9.6 E+04
CCCCCCCCCCC(CNC(=O)CCCCC)NC(=O)CCCCCN(CCCO)CCCCCC(=O)NC(CCCCCCCCCC)CNC(=O)CCCCC (centres unmarked) [E12N2LA6B6O3],168,0.06,90.3,,
CCCCCCCCCCC(CCCCOC(=O)CCCCC)OC(=O)CCCCCN(CCCO)CCCCCC(=O)OC(CCCCCCCCCC)CCCCOC(=O)CCCCC (centres unmarked) [K5LA6B6O3],106,0.03,96.2,,4.8E+05
